Consider two compounds from patent publication US20250312320A1, “METHOD AND TREATMENT FOR OSTEOARTHRITIS AND DISEASES OF CHONDROCYTE HYPERTROPHY” (The Royal Veterinary College, priority 2022, published 2025).

“Also recorded” adds a separate entry of the source.

The subject of series [1] is ATDC5 micromass. Nature of the series: Dose response of CDK8 inhibitors on ATDC5 micromass (alizarin red / alcian blue). As to conditions: all concentrations (10 μM down to 0.1 nM), day 14. The class given is cell-based, mouse. Here is the method: In brief, 2 μl micromasses were seeded in a 96-well plate and cultured as previous in the presence of BI1347 and additional CDK8i compounds namely BRD6989, AS2863619, SEL120-34A, MSC2530818 and CCT251545. Compound concentrations were titrated 10-fold from 10 μM down to 0.1 nM. On day 14 micromasses were fixed, stained and subsequently leached to allow for dose response analysis to be conducted.
In brief, 2 μl micromasses were seeded on a 96-well plate and cultured as previous in the presence of BI1347 and additional Mediator kinase inhibitor compounds namely BRD6989, AS2863619, SEL120-34A, MSC2530818 and CCT251545. Compound concentrations were titrated 10-fold from 10 μM down to 0.1 nM. On day 14 micromasses were fixed, stained and subsequently leached to allow for dose response analysis to be conducted.

In series [2] the test system is MC3T3 (subclone 14) osteoblast-like cells. The series can be described thus: MC3T3 osteoblast-like cell mineralisation (alizarin red). The class given is cell-based. On the procedure:
2×10^4 MC3T3 (subclone 14) osteoblast-like cells were seeded on a 24-well plate and cultured for 2 days in osteoblast growth media (Alpha-MEM supplemented with 10% FBS, 1% Ab/Am) before induction of differentiation with osteoblast differentiation media (Alpha-MEM, 10% FBS, 1% Ab/Am, 50 μg/ml ascorbic acid, 5 mM β-glycerophosphate) in the presence of 1 μM BI1347 or DMSO, with media changes every 2-3 days.
Another MC3T3 differentiation method was also carried out with MSC2530818 treatment. Briefly, MC3T3 cells were seeded as above and differentiated for 7 days in osteogenic induction media (Alpha-MEM, 10% FBS, 1% Ab/Am, 50 μg/ml ascorbic acid) with DMSO or 100 nM MSC2530818, before switching to osteogenic induction media with 2 mM β-glycerophosphate in the presence of 100 nM MSC2530818 or DMSO.
Cells were fixed in 95% ice-cold methanol and stained with 1% Alizarin Red on day 7, 10 and 14 of culture for BI1347 and on day 14 only for MSC2530818 treated cells to observe effects of compounds on mineralization compared to DMSO control. Alizarin red stain was leached and measured as previously described.

A further series relates to MC3T3 cells. Nature of the series: MC3T3 cell viability assay (resazurin). Type of series: cell-based. As to conditions: 1 μM, day 7 and 14. On the procedure:
To determine potential toxicity of CDK8i on MC3T3 cells, a cell viability assay was carried out on day 7 and 14 of MC3T3 cells treated with 1 μM BI1347. Briefly, culture media was replaced with differentiation media containing 0.2 mM resazurin dye and incubated for 2 hours at 37° C. before measurement at 570 nm normalized to 600 nm.
(Alamar Blue is a resazurin reagent that responds to reducing activity.)

Series [3] relates to ATDC5 micromass. Nature of the series: ATDC5 micromass treated with CDK8i: qPCR gene expression and morphology. As to conditions: 1 μM. The class given is cell-based, mouse. Here is the method: ATDC5 and primary equine chondrocytes were cultured in micromasses and treated with a CDK8i to determine effects on gene expression during chondrogenic differentiation.
In more detail, for ATDC5 cells, 2.7×10^5 cells were seeded in a 10 μl droplet onto a 24-well plate and cultured in differentiation media supplemented with CDK8i for 7 days before switching to mineralisation media supplemented with CDK8i for a further 7 days to induce hypertrophic differentiation as previous. The CDK8i was either 1 μM BI1347 or 100 nM MSC2530818.
On days 7 and 14 DMSO control and BI1347/MSC2530818 treated ATDC5 micromasses were lysed in triplicate and RNA extracted using Reliaprep RNA miniprep system (Promega) before cDNA synthesis using High-capacity reverse transcriptase kit (Applied BioScience). Quantitative PCR (qPCR) analysis was carried out using 10 ng cDNA in iTaq mastermix (BioRad) according to manufacturer's instructions. Primer sequences for qPCR reactions are shown in Table 1. ΔCt values of genes expressed were normalised to reference housekeeper genes and subsequently used to generate relative expression. Significance was observed by conducting unpaired T-test with Welch correction.

The test system of series [4] is ATDC5 micromasses. The series can be described thus: Phased dosing of CDK8i on ATDC5 micromasses (alcian blue / alizarin red). Type of series: cell-based, mouse. The conditions noted are these: 1 μM, phased dosing 2, 4, 6, 9, 11, 14 days, read day 14; all timepoints. On the procedure: To understand the longevity of the CDK8i effect observed with BI1347 and MSC2530818, ATDC5 micromasses were exposed to a phased dosing regimen. This consisted of treating standard 10 μl ATDC5 micromasses with differentiation media containing 1 μM of BI1347 or MSC2530818 for 2 days before switching to control differentiation media for the remaining culture period ending on day 14 of differentiation. This was repeated for 4, 6, 9, 11 and 14 days of treatment. On day 14, cells were fixed and stained with alizarin red or alcian blue as previously described.

Series [5] has as its system ATDC5 micromasses. The series can be described thus: Dose response of CDK8i on genes of interest in hypertrophic ATDC5 micromasses. The class given is cell-based, mouse. The conditions noted are these: for gene expression of OA protective genes (TIMP4, MATN3, SMOC2, CNMD) / gene expression of hypertrophic/mineralised matrix marker IBSP: 1 μM, 100 nM or 10 nM, 14 day hypertrophic differentiation, vs DMSO; for dose response in gene expression: efficacy down to: 14 days differentiation to hypertrophy. Here is the method: To confirm that the gene expression profile observed in the day 7 RNAseq dataset was reproducible in hypertrophic cells, we selected genes of interest from the RNAseq dataset and analysed gene expression analysis on hypertrophic ATDC5 cells. 2.7×10^5 ATDC5 cells were cultured in 10 μl micromasses in the presence of BI1347 and MSC2530818 at concentrations 1 μM, 100 nM, 10 nM and DMSO control for 7 days in differentiation media before switching to mineralisation media for 7 days. On day 14 cells were processed for qPCR analysis as previously described.

The subject of series [6] is monolayer culture of ATDC5 cells. The series can be described thus: Monolayer culture of ATDC5 cells, GAG deposition. The class given is cell-based, mouse. The conditions noted are these: monolayer instead of micromass.
In series [7] the test system is STR/Ort mouse tibial subchondral bone. Nature of the series: STR/Ort mouse 12 week study: microCT of subchondral bone. The class given is in vivo. The conditions noted are these: 5 mg/kg oral intermittently, 12 weeks, N=3/group. On the procedure: Following the pilot study, a larger in vivo study using the STR/Ort OA mouse model was conducted. […]
On week 12 mice were sacrificed and hind limbs were fixed in 4% PFA for 48 hours before storing in 70% EtOH. Micro computed tomography (μCT) scans were carried out on hind limbs to analyse MSC2530818 effects on bone. Samples were wrapped in plastic film before scanning to prevent drying and scanned using the Skyscan 1172F (Bruker). Whole limbs were scanned with X-ray settings 50 kV and 200 μA, using an aluminum 0.5 mm filter, 960 ms exposure time and 5 μm pixel size. Scanned images were reconstructed into tomograms using NRecon 1.7.3.1 (Bruker) using a reconstruction threshold with a minimum value of −1000 and maximum value of 9486 in Hounsfield units and repositioned using Dataviewer 1.5.4 (Bruker). Tibial subchondral bone regions were manually segmented and analysed using CTAn 1.18.4 (Bruker).

Regarding `CN(C)C(=O)Cn1cc(-c2ccc(-c3cncc4ccccc34)cc2)cn1` [BI1347], the “alcian blue staining (GAG deposition)” value with ATDC5 micromass [1] is “maintained”. The “mineralisation by alizarin red stain vs DMSO” value (“mineralisation … vs DMSO” below) in series [2] (1 μM, over 14 days culture) was “completely inhibited mineralisation; also recorded: reduced mineralisation”. Moreover, in the series with MC3T3 cells, the “cell viability (resazurin) vs DMSO” value is “no difference in absorbance; also recorded: no toxicity observed”. The micromass morphology result with ATDC5 micromass [3] (14 days, vs DMSO) is “visible increase in extracellular matrix production; also recorded: visibly larger, more rounded and resembled the appearance of healthy cartilage”. Besides, in the series on ATDC5 micromass [3] (day 7), the “COL2A1 expression, increase vs DMSO” value is reported as 4.7 fold and the “Mediator complex gene expression vs DMSO” value is “robustly downregulated; also recorded: overall reduction”. In addition, in the series on ATDC5 micromass [3] (day 7 (N.S)), the “ACAN expression, increase vs DMSO” value is 6 fold. Moreover, in the series with ATDC5 micromass [3] (day 14), the “ACAN expression, increase vs DMSO” value was 6 fold and the “COL10A1 expression, decrease vs DMSO” value is reported as 5.3 fold. Further, in the series with ATDC5 micromasses [4], the “Glycosaminoglycan (GAG) deposition (leached alcian blue absorbances) vs DMSO” value is recorded as “increase in GAG deposition” and the “Mineralization (leached alizarin red absorbances) vs DMSO” value is “decrease in mineralisation”. In addition, in the series with ATDC5 micromasses [5], the “gene expression of OA protective genes (TIMP4, MATN3, SMOC2, CNMD)” value is reported as “dose dependent increase”; the “gene expression of hypertrophic/mineralised matrix marker IBSP” value is given as “dose dependent decrease”; the “dose response in gene expression: efficacy down to” value is reported as 10 nM. Also, the “changes in GAG deposition” value in series [6] is listed as “not seen”.
`Cc1n[nH]c2ncc(C(=O)N3CCC[C@H]3c3ccc(Cl)cc3)cc12` [MSC2530818]: in series [7], the “subchondral bone surface area vs DMSO” value is “did not observe an alteration; also recorded: no difference”, the “subchondral bone surface density vs DMSO” value is reported as “did not observe an alteration; also recorded: no difference” and the “subchondral bone volume/total volume (BV/TV) vs DMSO” value is “did not observe an alteration; also recorded: no difference”. The “alcian blue staining (GAG deposition)” value in the series with ATDC5 micromass [1] is given as “maintained”. For the same compound, the “mineralisation … vs DMSO” value in series [2] (100 nM, 14 days (AA day 0-7, AA + 2 mM BGP day 7-14)) is recorded as “mineralisation was ablated”. Also, in series [2] (100 nM, 14 days (AA day 0-7, AA + 2 mM BGP day 7-14), listed as MSC), the “mineralisation … vs DMSO” value was “ablation of mineralization”. In the series with ATDC5 micromasses [4], the “Glycosaminoglycan (GAG) deposition (leached alcian blue absorbances) vs DMSO” value was “increase in GAG deposition” and the “Mineralization (leached alizarin red absorbances) vs DMSO” value was “decrease in mineralisation”. In the series with ATDC5 micromasses [5], the “gene expression of OA protective genes (TIMP4, MATN3, SMOC2, CNMD)” value is on record as “dose dependent increase”; the “gene expression of hypertrophic/mineralised matrix marker IBSP” value is on record as “dose dependent decrease”; the “dose response in gene expression: efficacy down to” value is reported as 10 nM. Besides, the “changes in GAG deposition” value in series [6] is on record as “not seen”.
